Measurements reported in patent US4973603A, “Platelet activating factor antagonist and methods of use therefor” (priority 1989, dated 1990).
Like-named read-outs stand apart in the source and are kept apart here.

Tests used:
gastric mucosa [1] = conditions: 1 hour; for Mean Score: scale 0-3 (0 = normal mucosa)
Protocol: Robert and Szabo, In: Selye's Guide to Stress Research, (Vol. 2, A. Selye, Ed.) New York; Van Nostrand Reinhold Co., pp. 22-46 (1983); and Robert et al., Gastroenterology, 77:433-443 (1979). Experimental groups of 5-11 rats (Charles River CD) were fasted for 24 hours before the administration of either aspirin, Formula I or indomethacin by a rubber stomach tube (Rusch No. 8). The animals were killed 1 hour later by carbon dioxide asphyxiation. At that time, 4 ml of 10% aqueous buffered formaldehyde (formalin) was injected directly into the stomach of each animal. […] After 5 minutes of in situ fixation, the stomach and proximal duodenum were removed, opened along the greater curvature, pinned on a cork with mucosa upward, and immersed in 10% formaldehyde until further processing. Szabo, S. et al., J. Pharmacol. Meth., 13:59-66 (1985). The gastric lesions were then evaluated by direct visual inspection.
For comparative purposes, a semiquantitative scale of 0-3 was used to assess the extent of gastric mucosal lesions. Szabo et al., Science, 214:200-202 (1981); and Szabo et al., Gastroenterology, 85:1384-1390 (1983). According to this scale, a score of 0 indicates a normal mucosa; 1 represents the appearance of between 1 and 4 small petechiae; 2 indicates the presence of 5 or more petechiae or hemmorhagic streaks up to 4 mm in length; 3 represents the appearance of erosions longer than 5 mm or confluent hemmorrhages.

arachidonic acid = experiment: The Mouse Ear Edema Test (arachidonic acid-induced skin edema); type: in vivo, mouse (Charles River CD-1, female); conditions: 1 hour before arachidonic acid (0.5 mg)
Source text: The direct application of arachidonic acid to skin, such as the mouse ear, produces an edematous response which is believed to be mediated by eicosanoids resulting from the actions of both cyclooxygenase and lipoxygenase systems. J. M. Young, D. A. Spires, C. J. Bedford, B. Wagner, S. J. Ballaron and L. M. DeYoung, J. Invest. Dermatol. 82:367-371 (1984); E. E. Opas, R. J. Bonney, and J. L. Hanes J. Invest. Dermatol. 84:253-256 (1985). PAF has been reported to cause the release of arachidonic acid, and as a result, gives rise to increased levels of eicosanoids in the exposed tissues. F. H. Chilton, J. T. Flaherty, C. E. Walsh, M. J. Thomas, R. L. Wykle, L. R. DeChatelet and B. M. Waite, J. Biol. Chem., 257:5402-5407 (1982). Thus, the mouse ear edema test can be used to discover substances which antagonize the effects of PAF.
The test drugs were dissolved in 10 μl ethanol and applied to the inner surface of the left ears of Charles River CD-1 female mice. Control values were obtained by applying 10 μl of ethanol to the right ear so that each mouse served as its own control. One hour later, arachidonic acid (0.5 mg/ear in 10 μl ethanol) was applied to both ears and allowed to act on the skin for one hour. The mice were then killed by cervical dislocation and the ears removed so that all tissue samples were of equivalent areas. The extent of edema in each sample was measured by weighing on an analytical balance.

gastric mucosa [2] = conditions: common adverse effect of consumption; cited from earlier work
[3] = test system: platelet activating factor (PAF); experiment: PAF Induced Mortality; type: in vivo, mouse (Charles River CD-1, female); conditions: for protective effect (in words): compared with Formula I
Protocol: The induction of mortality by the injection of low doses of PAF into mice has been described as a method for assessing the effectiveness of agents to antagonize the anaphylactic properties of PAF by J. M. Young, P. J. Maloney, S. W. Jubb and J. S. Clarke, in Prostaglandins, 30:545-551 (1985). Charles River CD-1 female mice (25-30 g) were given intraperitoneal injections of PAF (10 μg) dissolved in 100 μl of 5% ethanol-saline. […] Test drugs were orally administered in 50 μl of peanut oil one hour prior to PAF injection. Control mice were dosed with vehicle only. Mortality was assessed by counting survivors at one hour, two hours, and twenty four hours after the PAF injection.

[4] = test system: platelet activating factor (PAF); experiment: PAF Induced Paw Edema in the Mouse; type: in vivo, mouse (Charles River CD-1, female); conditions: 1 hour before PAF (1 ug/paw), 15 min after PAF
Protocol: The experimental procedure was adapted from Calhoun et al., Agents & Actions, 21:306-309 (1987). Charles River CD-1 female mice (20-25 G) were given a dose of Formula I, or phenidone, using peanut oil as a carrier. Control mice were given doses of the carrier alone. The drugs were administered orally in a 50 μl volume of peanut oil. One hour later, 1.0 μg of PAF dissolved in 50 μl of 5% ethanol-saline was injected subcutaneously into the plantar surface of the right hind paw. The volume of this injected foot to the level of the lateral malleous was measured by water displacement immediately before drug administration and again 15 minutes after PAF injection.
The effectiveness of each compound was analyzed in the following manner. The individual paw volumes were compared by a paired t test analysis in which predrug paw volumes were compared to paw volumes 15 minutes after PAF injection to determine the level of statistical significance. The percent inhibition of edema volume was obtained from the ratio of the mean predrug volume to the mean volume after PAF.

[5] = test system: platelet activating factor (PAF); conditions: reported by Calhoun et al., Agents & Actions, 21:306-309 (1987); cited from earlier work
[6] = 20 mg/kg oral, 1 hr after PAF (10 μg i.p.)
[7] = 20 mg/kg oral, 2 hrs after PAF (10 μg i.p.)
[8] = 20 mg/kg oral, 24 hrs after PAF (10 μg i.p.)
[9] = 40 mg/kg oral, 1 hr after PAF (10 μg i.p.)
[10] = 40 mg/kg oral, 2 hrs after PAF (10 μg i.p.)
[11] = 40 mg/kg oral, 24 hrs after PAF (10 μg i.p.)

## CC(=O)Oc1ccccc1C(=O)O [Aspirin, aspirin]
Gastric mucosa [1]; 100 mg/kg by stomach tube
  Mean Score: 1.9

## COc1ccc2c(c1)c(CC(=O)O)c(C)n2C(=O)c1ccc(Cl)cc1 [Indomethacin, indomethacin]
Gastric mucosa [1]; 10 mg/kg by stomach tube
  Incidence (rats with lesions/total tested): 2/5
  Mean Score: 0.6
Gastric mucosa [1]; 20 mg/kg by stomach tube
  Incidence (rats with lesions/total tested): 6/11
  Mean Score: 0.77
Arachidonic acid; 0.05 mg/ear topical
  % Inhibition of Edema: 24.1%
Arachidonic acid; 0.10 mg/ear topical
  % Inhibition of Edema: 21.8%

## COc1ccc2cc([C@H](C)C(=O)O)ccc2c1 [Naproxen, naproxen, reference compound]
Gastric mucosa [2]
  gastrointestinal damage (in words): gastrointestinal damage, generally manifested as bleeding and/or frank ulceration
[3]; [6]
  Survivors (%): 40%
  Survivors/N: 4/10
[3]; [7]
  Survivors (%): 40%
  Survivors/N: 4/10
[3]; [8]
  Survivors (%): 20%
  Survivors/N: 2/10
[3]; [9]
  Survivors (%): 100%
  Survivors/N: 5/5
[3]; [10]
  Survivors (%): 60%
  Survivors/N: 3/5
[3]; [11]
  Survivors (%): 60%
  Survivors/N: 3/5
[3]
  protective effect (in words): less protective than Formula I, particularly at longer time intervals

## O=C1CCN(c2ccccc2)N1 [Phenidone, phenidone, reference compound]
Gastric mucosa [2]
  gastrointestinal damage (in words): gastrointestinal damage, generally manifested as bleeding and/or frank ulceration
[4]; 40 mg/kg oral
  % Inhibition of Edema: 20.4%
[4]; 80 mg/kg oral
  % Inhibition of Edema: 35.7%
[5]
  effectiveness against PAF edema (in words): effective against PAF edema
Arachidonic acid; 0.063 mg/ear topical
  % Inhibition of Edema: 15.4%
Arachidonic acid; 0.13 mg/ear topical
  % Inhibition of Edema: 26.6%
Arachidonic acid; 0.25 mg/ear topical
  % Inhibition of Edema: 24.4%
[3]; [9]
  Survivors (%): 20%
  Survivors/N: 1/5
[3]; [10]
  Survivors (%): 20%
  Survivors/N: 1/5
[3]; [11]
  Survivors (%): 20%
  Survivors/N: 1/5
[3]
  protective effect (in words): less protective than Formula I, particularly at longer time intervals
